In patent US20130315843A1, “COMPOSITION FOR REDUCTION OF TRPA1 AND TRPV1 SENSATIONS” (priority 2012, published 2013):
Like-named read-outs stand apart in the source and are kept apart here.

Assays:
[1] = Headspace GC reduction of 1-propanethiol by protectant (Michael Acceptor) compounds; details: for Percent Thiol Reduction vs. Control: 0.1% SLS
Procedure: For EXAMPLES 11 and 12 a 0.1% sodium lauryl sulfate (SLS) aqueous solution was prepared to contain either 1 ppm or 10 ppm of 1-propanethiol. SLS solution was added to the sample and control solutions to assist in solubilization of the more hydrophobic compounds. Control solutions contained surfactant and 1-propanethiol, while sample solutions contained these components plus a protectant compound added at either 0.01% or 0.05%. 100 μL aliquots of control or test solutions were aliquotted into a 22 mL headspace vial, vortexed for 30 seconds, and incubated for 30 minutes at 60 C in an oven. After that period, 1 mL of head space was sampled and injected into an Agilent 7890 gas chromatograph equipped with a sulfur chemiluminescence detector (GC-SCD). Peak areas of the 1-propanethiol control sample (no protectant compound added) were established by triplicate injection of the control sample. The area of the propanethiol peak produced from samples containing selected protectant molecules were then determined and ratioed to the 1-propanethiol control peak area, subtracted from 1, and multiplied by 100 to calculate percent reduction of the thiol peak, thus indicating the effectiveness of each protectant at reducing the level of thiol.
The samples in TABLE 17 were prepared by combining 1 ppm 1-propanethiol with 0.1% sodium lauryl sulfate with 1% of the test compounds. The volatile sulfurs were measured with headspace GC/MS using a SPEME column to capture the volatile sulfur.
The samples in TABLE 18 were prepared by combining either 1 or 10 ppm 1-propanethiol with 0.1% sodium lauryl sulfate with either 0.01% or 0.05% of the test compounds.

[2] = Trained sensory panel, burn sensation after brushing with menthol dentifrice; format: in vivo, human; design: key: 0 = no burning to 60 = highest intensity; 7.5 difference = significant; details: scale 0-60
Procedure: (§1) For EXAMPLES 6 and 7 sensory evaluation studies of menthol and hydrogen peroxide activity were conducted using a methodology patterned after the techniques described in M. C. Meilgaard, et al., Sensory Evaluation Techniques, 4th Ed. (2007). In one study, a panel of 8-15 trained sensory experts evaluated the menthol or peroxide sensations experienced after brushing with a dentifrice containing the menthol or hydrogen peroxide and the respective TRPA1 or TRPV1 antagonists. Panelists brushed teeth with 1.5 grams of a dentifrice (containing coolant) or control (no coolant) and then expectorated. After brush expectoration, panelists evaluated the burn intensity, assigning a number between 0 (no burning) to 60 ([…]). After rinse expectoration, panelists evaluated burning intensity according to the same 0 to 60 scale. Evaluations were conducted at 5, 15, 30, 45, 60 minute, etc. time points. At each evaluation, panelists were instructed to breathe in through pursed lips and evaluate overall burning sensation. In this test, a numerical score difference from the control of 7.5 indicates user significant differences or definite reduction in burning at the specified time point. Measures between 4.0 to 7.5 indicate a noticeable trend in the specified parameter, which is not statistically significant, but noticeable.
For EXAMPLE 6 (TABLES 8 and 9), a panel of 14 trained sensory experts evaluated the sensory profile experienced after brushing with the dentifrice sample formulations shown in TABLES 6 and 7 containing high levels of menthol followed by rinsing with water. Panelists brushed teeth with 1.5 grams of a test dentifrice (containing high menthol levels) or control (no menthol) for 36 seconds and then expectorated. The dentifrice sample formulations (control and high L-Menthol) are shown below in TABLE 6 (with peppermint flavor) and TABLE 7 (with spearmint flavor). The dentifrices were made using conventional methods and are shown below with component amounts in weight % of total composition. […]
For TABLE 10 all the Samples had the same formulation as Sample E from TABLE 6, except for the Control which lacked menthol. After brushing or mouthwash expectoration, panelists evaluated the burning sensation, assigning a number between 0 (no sensation) to 60 (highest intensity sensation). Evaluations were conducted at 5, 10, 20 and 30 minute time points, following expectoration. At each evaluation, panelists were instructed to breathe in through pursed lips and evaluate overall sensation. In this test, a numerical score of 7.5 indicates a significant user noticeable sensation. Differences less than 7.5, but greater than 5.0 indicate the trending of the data on a specific attribute.

[3] = Trained sensory panel, burning and numbing sensation after hydrogen peroxide mouthwash; format: in vivo, human; design: key to Burning Sensation: 0 = no sensation, 60 = highest intensity sensation; details: scale 0-60
Procedure: as §1
For EXAMPLE 7, a panel of 10 trained sensory experts evaluated the sensory profile experienced after rinsing with 30 grams of a test mouthwash (containing hydrogen peroxide and TRPA1 or TRPV1 antagonist) or control (containing hydrogen peroxide and no TRPA1 or TRPV1 antagonist) for 30 seconds and then expectorated. After expectoration, panelists evaluated the sensorial profile (cooling, warming, burning, numbing, and astringency), assigning a number between 0 (no sensation) to 60 (highest intensity sensation). Evaluations were conducted at 2.5, 5, 10, 20, and 30 minute time points, following expectoration at each evaluation, panelists were instructed to breathe in through pursed lips and evaluate overall burning or numbing sensation. The hydrogen peroxide containing mouthwash formulations are shown below in TABLE 11. The mouthwash samples tested comprised a control having the components listed in TABLE 11 by weight % of the composition or the control formulation plus TRPA1 or TRPV1 antagonist, as shown in TABLE 12. The mouthwashes were made using conventional methods and are shown below with amounts in weight % of total composition.

human TRPV1 [4] = target: T1, human TRPV1 (Homo sapiens, UniProt Q8NER1); assay: FLIPR Ca2+ assay, reduction of hydrogen peroxide activation of TRPV1; format: cell-based; design: expressed in transfected cells; details: for Ca++ counts: with compound
T1 sequence (Q8NER1 whole entry): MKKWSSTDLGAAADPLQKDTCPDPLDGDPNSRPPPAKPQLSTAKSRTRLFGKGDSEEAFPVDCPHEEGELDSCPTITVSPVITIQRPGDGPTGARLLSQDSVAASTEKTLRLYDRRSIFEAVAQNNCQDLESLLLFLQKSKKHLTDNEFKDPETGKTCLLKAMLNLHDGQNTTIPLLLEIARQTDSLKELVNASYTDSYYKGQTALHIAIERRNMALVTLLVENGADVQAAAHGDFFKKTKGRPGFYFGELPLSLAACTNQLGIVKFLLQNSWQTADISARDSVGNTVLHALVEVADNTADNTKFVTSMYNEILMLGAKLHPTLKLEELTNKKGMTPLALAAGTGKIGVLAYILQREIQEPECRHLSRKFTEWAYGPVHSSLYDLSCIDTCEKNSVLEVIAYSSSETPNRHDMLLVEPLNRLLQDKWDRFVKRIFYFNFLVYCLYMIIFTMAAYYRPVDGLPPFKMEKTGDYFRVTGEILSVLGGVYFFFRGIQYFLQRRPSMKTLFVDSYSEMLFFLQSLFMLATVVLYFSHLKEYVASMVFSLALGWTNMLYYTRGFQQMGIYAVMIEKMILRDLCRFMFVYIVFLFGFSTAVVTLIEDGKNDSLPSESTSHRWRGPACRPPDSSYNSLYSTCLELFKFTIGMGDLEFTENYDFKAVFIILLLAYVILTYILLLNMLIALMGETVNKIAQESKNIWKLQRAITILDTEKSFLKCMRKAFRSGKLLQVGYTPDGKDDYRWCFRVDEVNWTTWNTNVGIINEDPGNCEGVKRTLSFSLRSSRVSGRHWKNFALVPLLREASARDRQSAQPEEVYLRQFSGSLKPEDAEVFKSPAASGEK
Procedure: (§2) Cells were detached with addition of 10 ml of PBS (phosphate buffered saline) by hand shaking gently. Cells were transferred to a 50 ml tube and centrifuged at 850 rpm for 3 minutes to remove PBS.
The pelleted cells were re-suspended in 10 ml assay buffer and 90 μl aliquots (˜50,000 cells) per well delivered to a 96-well assay plate containing 10 μl of test compounds (1 mM in assay buffer, […]) or buffer control and incubated at room temperature for 30 minutes.

human TRPV1 [5] = target: T1, human TRPV1; assay: FLIPR Ca2+ assay, reduction of capsaicin activation of TRPV1; format: cell-based; design: expressed in transfected cells; details: for Ca++ counts: with compound
Procedure: as §2
(§3) The pelleted cells were re-suspended in 10 ml assay buffer and 90 μl aliquots (˜50,000 cells) per well delivered to a 96-well assay plate containing 10 μl of test compounds ([…]) or buffer control and incubated at room temperature for 30 minutes.

human TRPA1 = human TRPA1 (Homo sapiens, UniProt O75762); assay: FLIPR Ca2+ assay, reduction of hydrogen peroxide activation of TRPA1; format: cell-based; design: expressed in transfected cells
Chain of human TRPA1 (O75762 whole entry): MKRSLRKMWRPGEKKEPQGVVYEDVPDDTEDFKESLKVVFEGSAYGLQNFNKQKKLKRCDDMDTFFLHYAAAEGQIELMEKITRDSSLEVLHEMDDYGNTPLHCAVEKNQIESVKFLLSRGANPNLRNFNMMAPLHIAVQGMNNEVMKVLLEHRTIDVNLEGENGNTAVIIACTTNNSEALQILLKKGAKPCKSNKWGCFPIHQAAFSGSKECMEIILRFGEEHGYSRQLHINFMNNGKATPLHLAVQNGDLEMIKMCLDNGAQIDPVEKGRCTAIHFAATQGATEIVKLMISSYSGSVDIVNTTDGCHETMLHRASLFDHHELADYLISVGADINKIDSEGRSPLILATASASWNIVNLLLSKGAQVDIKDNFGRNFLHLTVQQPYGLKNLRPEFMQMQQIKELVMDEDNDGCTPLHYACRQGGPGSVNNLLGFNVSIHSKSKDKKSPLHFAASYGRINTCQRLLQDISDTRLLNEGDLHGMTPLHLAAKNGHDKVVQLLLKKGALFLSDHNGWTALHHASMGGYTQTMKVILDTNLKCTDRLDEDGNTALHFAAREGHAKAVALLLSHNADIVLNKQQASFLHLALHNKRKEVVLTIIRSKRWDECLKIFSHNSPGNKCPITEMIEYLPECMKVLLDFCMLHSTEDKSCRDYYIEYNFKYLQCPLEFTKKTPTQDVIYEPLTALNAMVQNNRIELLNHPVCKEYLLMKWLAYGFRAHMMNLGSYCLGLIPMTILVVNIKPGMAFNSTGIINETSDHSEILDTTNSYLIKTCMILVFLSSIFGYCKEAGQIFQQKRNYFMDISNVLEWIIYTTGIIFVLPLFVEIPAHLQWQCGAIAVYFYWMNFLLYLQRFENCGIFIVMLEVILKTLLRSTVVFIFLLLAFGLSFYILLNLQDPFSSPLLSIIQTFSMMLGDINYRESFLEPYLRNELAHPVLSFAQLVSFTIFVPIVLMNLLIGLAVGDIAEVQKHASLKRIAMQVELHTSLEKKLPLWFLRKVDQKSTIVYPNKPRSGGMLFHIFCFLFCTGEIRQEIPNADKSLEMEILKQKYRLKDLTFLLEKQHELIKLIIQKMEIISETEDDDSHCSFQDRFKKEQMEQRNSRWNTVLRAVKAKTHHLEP
Procedure: After centrifugation, a pellet of cells was formed in the bottom of the tube separating them from the supernatant solution.
as §3

[6] = 5 Min After Rinse, dentifrice Sample E (1% menthol) with antagonist levels as E42
[7] = 10 Min After Rinse, dentifrice Sample E (1% menthol) with antagonist levels as E42
[8] = 20 Min After Rinse, dentifrice Sample E (1% menthol) with antagonist levels as E42
[9] = 30 Min After Rinse, dentifrice Sample E (1% menthol) with antagonist levels as E42
[10] = After Expectoration, dentifrice Sample E (1% added menthol) with Apritone 200 ppm, Dihydrojasmone 6 ppm, Isobornyl Isobutyrate 100 ppm, α-heptyl-γ-valerolactone 100 ppm as named
[11] = After Rinse, dentifrice Sample E (1% menthol) with antagonist levels as E42
[12] = 2 Min 30 SEC After Expectoration, H2O2 mouthwash, antagonist levels as E48
[13] = 5 Min After Expectoration, H2O2 mouthwash, antagonist levels as E48
[14] = 10 Min After Expectoration, H2O2 mouthwash, antagonist levels as E48
[15] = 20 Min After Expectoration, H2O2 mouthwash, antagonist levels as E48
[16] = 30 Min After Expectoration, H2O2 mouthwash, antagonist levels as E48
[17] = After Expectoration, H2O2 mouthwash, antagonist levels as E48
[18] = Initial in Mouth, hydrogen peroxide mouthwash (TABLE 11) with Apritone 200 ppm, Isobornyl Isobutyrate 100 ppm, Dihydrojasmone 6 ppm as named, 10 panelists
[19] = antagonist 100 μM against 500 μM hydrogen peroxide
[20] = 400 μM antagonist vs 500 μM hydrogen peroxide

CC(=O)c1ccc[nH]1 [Acetylpyrrole]
% Thiol Reduction ([1]; 1 ppm 1-propanethiol, 0.1% sodium lauryl sulfate, 1% test compound, headspace): 37.3%

CC/C=C\CC1=C(C)CCC1=O [cis-Jasmone]
Percent Thiol Reduction vs. Control ([1]; 1 ppm 1-propanethiol, 0.01% test compound): 36.1% | Percent Thiol Reduction vs. Control ([1]; 1 ppm 1-propanethiol, 0.05% test compound): 55.3% | Percent Thiol Reduction vs. Control ([1]; 10 ppm 1-propanethiol, 0.01% test compound): 25.4% | Percent Thiol Reduction vs. Control ([1]; 10 ppm 1-propanethiol, 0.05% test compound): 8.2%

CC(C)=CCC/C(C)=C/CC1CCCC1=O (stereo not shown) [Apritone]
Burning Sensation Rating [2, 6]: 13.3 | Burning Sensation Rating [2, 7]: 5.3 | Burning Sensation Rating [2, 8]: 0.0 | Burning Sensation Rating [2, 9]: 0.0 | Burning Sensation Rating [2, 10]: 27.4 | Burning Sensation Rating [2, 11]: 24.0 | Burning Sensation [3, 12]: 20.8 | Numbing Sensation [3, 12]: 12.4 | Burning Sensation [3, 13]: 16.0 | Numbing Sensation [3, 13]: 10.1 | Burning Sensation [3, 14]: 8.6 | Numbing Sensation [3, 14]: 6.0 | Burning Sensation [3, 15]: 3.3 | Numbing Sensation [3, 15]: 4.2 | Burning Sensation [3, 16]: 1.3 | Numbing Sensation [3, 16]: 0.8 | Burning Sensation [3, 17]: 21.9 | Numbing Sensation [3, 17]: 11.6 | Burning Sensation [3, 18]: 12.6 | % inhibition of TRPV1 activation by 500 uM H2O2 (human TRPV1 [4]; Dose 1000): 96% | % Reduction of Hydrogen Peroxide TRPV1 Activation (human TRPV1 [4]; [19]): 96% | Ca++ counts (human TRPV1 [4]; Dose 1000, 500 uM H2O2): 66 | % inhibition of TRPV1 activation by 350 nM Capsaicin (human TRPV1 [5]; Dose 1000): 10% | Ca++ counts (human TRPV1 [5]; Dose 1000, 350 nM Capsaicin): 13526

Cn1cccc1C=O [1-Methyl-2-pyrole carboxaldehyde]
reduction of hydrogen peroxide activation of TRPA1, in words (human TRPA1): reduced hydrogen peroxide activation of TRPA1 | Block of hydrogen peroxide activation of TRPA1 (human TRPA1; [20]): BLOCK ONLY H2O2/TRPA1 | % Reduction of Hydrogen Peroxide TRPA1 Activation (human TRPA1; antagonist 400 μM against 200 μM hydrogen peroxide): 42% | reduction of hydrogen peroxide activation of TRPV1, in words (human TRPV1 [4]): hydrogen peroxide reduction of TRPV1 | % inhibition of TRPV1 activation by 500 uM H2O2 (human TRPV1 [4]; Dose 4000): 79% | % Reduction of Hydrogen Peroxide TRPV1 Activation (human TRPV1 [4]; antagonist 400 μM against 500 μM hydrogen peroxide): 79% | Ca++ counts (human TRPV1 [4]; Dose 4000, 500 uM H2O2): 380 | % inhibition of TRPV1 activation by 350 nM Capsaicin (human TRPV1 [5]; Dose 4000): 3% | Ca++ counts (human TRPV1 [5]; Dose 4000, 350 nM Capsaicin): 11516

CCCCCCCC1CC(C)OC1=O (stereo not drawn) [α-heptyl-γ-valerolactone]
Burning Sensation Rating [2, 6]: 13.8 | Burning Sensation Rating [2, 7]: 1.3 | Burning Sensation Rating [2, 8]: 0.0 | Burning Sensation Rating [2, 9]: 0.0 | Burning Sensation Rating [2, 10]: 25.4 | Burning Sensation Rating [2, 11]: 21.5

CC(=O)OC1=C(C)OC(C)C1=O (stereo not shown) [Strawberry Furanone Acetate, 4-Acetoxy-2,5-dimethyl-3(2H)-furanone]
reduction of hydrogen peroxide activation of TRPA1, in words (human TRPA1): reduced hydrogen peroxide activation of TRPA1 | Block of hydrogen peroxide activation of TRPA1 (human TRPA1; [20]): BLOCK ONLY H2O2/TRPA1 | inhibition at 400 µM (human TRPA1; antagonist 400 μM against 200 μM hydrogen peroxide, read-out: % Reduction of Hydrogen Peroxide TRPA1 Activation): 63% | reduction of hydrogen peroxide activation of TRPV1, in words (human TRPV1 [4]): hydrogen peroxide reduction of TRPV1 | inhibition at 100 µM (human TRPV1 [4]; [19]): 60% | Ca++ counts (human TRPV1 [4]; Dose 1000, 500 uM H2O2): 451 | Ca++ counts (human TRPV1 [5]; Dose 1000, 350 nM Capsaicin): 14578

CC(CC=O)CCCC(C)(C)O (stereo not shown) [Hydroxycitronellal]
Block of hydrogen peroxide activation of TRPA1 (human TRPA1; 100 μM antagonist vs 500 μM hydrogen peroxide): BLOCK ONLY H2O2/TRPA1 | Average Ca++ Counts (human TRPA1; compound 100 μM against 200 μM hydrogen peroxide, Sets 1-4): 6313.0 Counts | inhibition at 100 µM (human TRPA1; compound 100 μM against 200 μM hydrogen peroxide, Sets 1-4, read-out: % Reduction of Hydrogen Peroxide TRPA1 Activation): 40.4% | inhibition at 100 µM (human TRPV1 [4]; [19]): 62% | Ca++ counts (human TRPV1 [4]; Dose 1000, 500 uM H2O2): 627 | Ca++ counts (human TRPV1 [5]; Dose 1000, 350 nM Capsaicin): 14728

CC(C)C(=O)O[C@@H]1C[C@H]2CC[C@]1(C)C2(C)C [Isobornyl Isobutyrate]
Burning Sensation Rating [2, 6]: 12.8 | Burning Sensation Rating [2, 7]: 5.6 | Burning Sensation Rating [2, 8]: 0.6 | Burning Sensation Rating [2, 9]: 0.0 | Burning Sensation Rating [2, 10]: 25.4 | Burning Sensation Rating [2, 11]: 22.8 | Burning Sensation [3, 12]: 17.6 | Numbing Sensation [3, 12]: 7.9 | Burning Sensation [3, 13]: 11.4 | Numbing Sensation [3, 13]: 5.8 | Burning Sensation [3, 14]: 5.1 | Numbing Sensation [3, 14]: 2.5 | Burning Sensation [3, 15]: 0.0 | Numbing Sensation [3, 15]: 0.0 | Burning Sensation [3, 16]: 0.0 | Numbing Sensation [3, 16]: 0.0 | Burning Sensation [3, 17]: 20.9 | Numbing Sensation [3, 17]: 8.4 | Burning Sensation [3, 18]: 12.7 | % Reduction of Hydrogen Peroxide TRPA1 Activation (human TRPA1): 80% | Block of hydrogen peroxide activation of TRPA1 (human TRPA1): BLOCK ONLY H2O2/TRPA1 | reduction of hydrogen peroxide activation of TRPA1, in words (human TRPA1): reduced hydrogen peroxide activation of TRPA1 | reduction of hydrogen peroxide activation of TRPV1, in words (human TRPV1 [4]): hydrogen peroxide reduction of TRPV1 | % inhibition of TRPV1 activation by 500 uM H2O2 (human TRPV1 [4]; Dose 1000): 52% | % Reduction of Hydrogen Peroxide TRPV1 Activation (human TRPV1 [4]; [19]): 52% | Ca++ counts (human TRPV1 [4]; Dose 1000, 500 uM H2O2): 541 | % inhibition of TRPV1 activation by 350 nM Capsaicin (human TRPV1 [5]; Dose 1000): 1.5% | Ca++ counts (human TRPV1 [5]; Dose 1000, 350 nM Capsaicin): 14803
